Test results from US9260429B2, “Pyrido[3,4-B]indoles and methods of use” (Medivation Technologies, Inc., priority 2008, dated 2016).
Where two headings read alike, the source gives them in different places.

Assays:
[1] = biological target: T1, human recombinant adrenergic α2A receptor (Homo sapiens, UniProt P08913); test: Adrenergic α2A radioligand binding ([3H]MK-912)
T1 construct: expressed in transfected cells; host or cells: insect Sf9 cells
T1 sequence (P08913 1-465): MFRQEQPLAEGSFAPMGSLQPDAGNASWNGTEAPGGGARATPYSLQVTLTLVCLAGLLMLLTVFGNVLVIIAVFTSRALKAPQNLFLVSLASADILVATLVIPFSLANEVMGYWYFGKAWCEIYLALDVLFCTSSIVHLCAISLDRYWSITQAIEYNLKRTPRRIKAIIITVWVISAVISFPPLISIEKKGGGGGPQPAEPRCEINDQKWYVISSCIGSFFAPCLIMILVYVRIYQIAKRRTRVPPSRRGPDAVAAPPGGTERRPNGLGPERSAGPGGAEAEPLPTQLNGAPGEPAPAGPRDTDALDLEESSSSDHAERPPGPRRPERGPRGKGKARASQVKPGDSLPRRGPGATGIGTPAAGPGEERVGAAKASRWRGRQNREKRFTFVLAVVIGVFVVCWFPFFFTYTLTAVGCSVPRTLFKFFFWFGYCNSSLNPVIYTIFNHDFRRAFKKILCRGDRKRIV
Method: To evaluate in radioligand binding assays the activity of compounds of the invention, human recombinant adrenergic α2A receptor expressed in insect Sf9 cells (Uhlen S et al. J Pharmacol Exp Ther. 271:1558, 1994) in a modified Tris-HCl buffer (50 mM Tris-HCl, pH 7.4, 12.5 mM MgCl2, 2 mM EDTA) was used. Compounds of invention were incubated with 1 nM [^3H]MK-912 for 60 minutes at 25° C. MK912 is (2S-trans)-1,3,4,5′,6,6′,7,12b-octahydro-1′,3′-dimethyl-spiro[2H-benzofuro[2,3-a]quinolizine-2,4′(1′H)-pyrimidin]-2′(3′H)-one hydrochloride Non-specific binding was estimated in the presence of 10 μM WB-4101 (2-(2,6-Dimethoxyphenoxyethyl)aminomethyl-1,4-benzodioxane hydrochloride). Receptor proteins were filtered and washed, the filters were then counted to determine [^3H]MK-912 specifically bound. Compounds were screened at 1 μM or lower, using 1% DMSO as vehicle. Biochemical assay results are presented as the percent inhibition of specific binding in Table 4.

[2] = biological target: T2, human recombinant serotonin (5-Hydroxytryptamine) 5-HT2A receptor (Homo sapiens, UniProt P28223); test: Serotonin 5-HT2A radioligand binding ([3H]Ketanserin)
T2 construct: expressed in transfected cells; host or cells: CHO-K1 cells
T2 sequence (P28223 whole entry): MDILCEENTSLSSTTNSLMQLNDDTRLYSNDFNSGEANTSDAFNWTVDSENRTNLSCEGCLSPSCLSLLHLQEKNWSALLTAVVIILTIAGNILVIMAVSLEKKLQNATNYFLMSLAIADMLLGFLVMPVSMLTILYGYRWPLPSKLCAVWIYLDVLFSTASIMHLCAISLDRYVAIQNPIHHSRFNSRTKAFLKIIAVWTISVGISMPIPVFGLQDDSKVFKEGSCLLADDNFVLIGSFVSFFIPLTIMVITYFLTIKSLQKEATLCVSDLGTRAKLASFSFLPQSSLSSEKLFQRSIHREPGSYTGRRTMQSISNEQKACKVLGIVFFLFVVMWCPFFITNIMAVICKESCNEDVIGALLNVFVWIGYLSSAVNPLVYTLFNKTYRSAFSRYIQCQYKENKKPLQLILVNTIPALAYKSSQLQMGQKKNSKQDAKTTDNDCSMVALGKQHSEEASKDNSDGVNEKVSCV
Procedure, shortened: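 Membranes from CHO-K1 cells expressing the receptor, in 50 mM Tris-HCl pH 7.4, incubated 60 min at 25° C with 0.5 nM [3H]Ketanserin; 1 μM Mianserin defines non-specific binding. Filtration and counting; values are % inhibition of specific binding at 1 μM or lower, 1% DMSO.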

[3] = biological target: T3, human recombinant adrenergic α2B receptor (Homo sapiens, UniProt P18089); test: Adrenergic α2B radioligand binding ([3H]Rauwolscine)
T3 construct: expressed in transfected cells; host or cells: CHO-K1 cells
T3 sequence (P18089 1-450): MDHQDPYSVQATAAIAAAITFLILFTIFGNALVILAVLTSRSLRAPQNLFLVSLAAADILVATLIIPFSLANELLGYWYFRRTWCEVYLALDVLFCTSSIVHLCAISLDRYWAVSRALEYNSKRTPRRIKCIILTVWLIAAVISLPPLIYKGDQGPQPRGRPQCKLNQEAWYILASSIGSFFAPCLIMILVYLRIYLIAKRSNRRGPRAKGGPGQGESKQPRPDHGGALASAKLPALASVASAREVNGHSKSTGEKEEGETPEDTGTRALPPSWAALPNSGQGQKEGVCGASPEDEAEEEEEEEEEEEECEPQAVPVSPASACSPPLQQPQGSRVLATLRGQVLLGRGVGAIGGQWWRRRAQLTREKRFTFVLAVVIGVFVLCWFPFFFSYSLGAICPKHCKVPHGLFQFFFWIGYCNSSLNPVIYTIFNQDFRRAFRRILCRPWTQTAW
Method: To evaluate in radioligand binding assays the activity of compounds of the invention, human recombinant adrenergic α2B receptor expressed in Chinese hamster ovary (CHO-K1) cells (Uhlen S et al. Eur J. Pharmacol. 343(1):93, 1998) in a modified Tris-HCl buffer (50 mM Tris-HCl, pH 7.4, 12.5 mM MgCl2, 1 mM EDTA, 0.2% BSA) was used. Compounds of the invention were incubated with 2.5 nM [^3H]Rauwolscine for 60 minutes at 25° C. Non-specific binding was estimated in the presence of 10 μM Prozosin. Receptor proteins were filtered and washed, the filters were then counted to determine [^3H]Rauwolscine specifically bound. Compounds were screened at 1 μM or lower, using 1% DMSO as vehicle. Biochemical assay results are presented as the percent inhibition of specific binding in Table 4.

[4] = biological target: T4, human recombinant histamine H2 receptor (Homo sapiens, UniProt P25021); test: Histamine H2 radioligand binding ([125I]Aminopotentidine)
T4 construct: expressed in transfected cells; host or cells: CHO-K1 cells
T4 sequence (P25021 whole entry): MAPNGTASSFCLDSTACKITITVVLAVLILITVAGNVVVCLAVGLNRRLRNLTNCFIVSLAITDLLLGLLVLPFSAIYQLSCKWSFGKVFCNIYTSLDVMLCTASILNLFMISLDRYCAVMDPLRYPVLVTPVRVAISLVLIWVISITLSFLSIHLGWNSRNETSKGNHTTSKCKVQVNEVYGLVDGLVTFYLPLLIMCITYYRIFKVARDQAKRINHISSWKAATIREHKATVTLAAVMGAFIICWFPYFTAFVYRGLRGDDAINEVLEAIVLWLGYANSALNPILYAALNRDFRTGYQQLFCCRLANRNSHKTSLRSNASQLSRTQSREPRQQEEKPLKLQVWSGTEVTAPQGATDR
Procedure, shortened: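 Membranes of CHO-K1 cells expressing human H2 receptor incubated with 0.1 nM [125I]aminopotentidine, 120 min, 25 °C, 50 mM phosphate pH 7.4; nonspecific binding defined with 3 μM tiotidine.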

[5] = 1 h, read-out: Percent Inhibition of ligand binding Adrenergic (1 μM ligand conc.) α2A
[6] = 1 h, read-out: Percent Inhibition of ligand binding Serotonin (1 μM ligand concentration) 5-HT2A
[7] = 1 h, read-out: Percent Inhibition of ligand binding Adrenergic (1 μM ligand conc.) α2B
[8] = 1 μM, inhibition of specific [125I]Aminopotentidine binding, read-out: Binding data (Percentage Inhibition) Histamine Binding (1 μM) H2

| Compound | inhibition at 1 µM [1, 5] | inhibition at 1 µM [2, 6] | inhibition at 1 µM [3, 7] | inhibition at 1 µM [4, 8] | other results |
| --- | --- | --- | --- | --- | --- |
| COC(=O)Cn1c2c(c3cc(Cl)ccc31)CCN(C)C2 [Compound 54, methyl 2-(6-chloro-2-methyl-3,4-dihydro-1H-pyrido[3,4-b]indol-9(2H)-yl)acetate] | 4% | 0% | 18% | 21% |  |
| CN1CCc2c(n(CC(=O)N3CCNCC3)c3ccc(Cl)cc23)C1 [Compound 55, 2-(6-chloro-2-methyl-3,4-dihydro-1H-pyrido[3,4-b]indol-9(2H)-yl)-1-(piperazin-1-yl)ethanone] | 10% | 17% | -21% | 2% |  |
| Cc1ccc(CCCn2c3c(c4cc(Cl)ccc42)CCN(C)C3)cn1 [Compound 56, 6-chloro-2-methyl-9-(3-(6-methylpyridin-3-yl)propyl)-2,3,4,9-tetrahydro-1H-pyrido[3,4-b]indole] | 7% | 12% | -10% | 20% |  |
| Cc1ccc2c(c1)c1c(n2CC(=O)N2CCCCC2)CN(C)CC1 [Compound 57, 2-(2,6-dimethyl-3,4-dihydro-1H-pyrido[3,4-b]indol-9(2H)-yl)-1-(piperidin-1-yl)ethanone] | 4% | 28% | 29% | 10% |  |
| CN1CCc2c(n(CC(=O)N3CCCCC3)c3ccc(Cl)cc23)C1 [Compound 58, 2-(6-chloro-2-methyl-3,4-dihydro-1H-pyrido[3,4-b]indol-9(2H)-yl)-1-(piperidin-1-yl)ethanone] | -12% | -10% | -15% | 11% |  |
| CN1CCc2c(n(CC(O)c3ccccc3F)c3ccc(Cl)cc23)C1 (stereo not shown) [Compound 59, 2-(6-chloro-2-methyl-3,4-dihydro-1H-pyrido[3,4-b]indol-9(2H)-yl)-1-(2-fluorophenyl)ethanol] | 91% | 80% | 97% | 28% |  |
| Cc1ccc2c(c1)c1c(n2CC(O)c2ccccc2F)CN(C)CC1 (stereo not shown) [Compound 60, 2-(2,6-dimethyl-3,4-dihydro-1H-pyrido[3,4-b]indol-9(2H)-yl)-1-(2-fluorophenyl)ethanol] | 79% | 74% | -5% | 15% |  |
| Cc1ccc2c(c1)c1c(n2CC(C)(O)c2ccc(F)cc2)CN(C)CC1 (stereo not shown) [Compound 61, 1-(2,6-dimethyl-3,4-dihydro-1H-pyrido[3,4-b]indol-9(2H)-yl)-2-(4-fluorophenyl)propan-2-ol] | 83% | 86% | 101% | 17% |  |
| CN1CCc2c(n(CC(C)(O)c3ccc(F)cc3)c3ccc(Cl)cc23)C1 (stereo not shown) [Compound 62, 1-(6-chloro-2-methyl-3,4-dihydro-1H-pyrido[3,4-b]indol-9(2H)-yl)-2-(4-fluorophenyl)propan-2-ol] | 90% | 88% | 102% | 48% |  |
| COc1ccc(C(O)Cn2c3c(c4cc(C)ccc42)CCN(C)C3)cc1OC (stereo not shown) [Compound 66] | 55% | 51% | 74% | 1% |  |
| Cc1ccc2c(c1)c1c(n2CC(O)c2ccccc2)CN(C)CC1 (stereo not shown) [Compound 67] | 85% | 77% | 106% | 8% |  |
| COc1ccc(C(O)Cn2c3c(c4cc(Cl)ccc42)CCN(C)C3)cc1OC (stereo not shown) [Compound 70] | 81% | 56% | 77% | 1% |  |
| CN1CCc2c(n(CC(O)c3ccccc3)c3ccc(Cl)cc23)C1 (stereo not shown) [Compound 71] | 88% | 87% | 95% | 11% |  |
| Cc1ccc(C(O)Cn2c3c(c4cc(C)ccc42)CCN(C)C3)cc1 (stereo not shown) [Compound 72] | 93% | 96% | 105% | 19% |  |
| CCC1c2c(c3cc(Cl)ccc3n2CCc2ccc(F)cc2)CCN1C (stereo not shown) [Compound 78] | 93% | 80% | 102% | 33% |  |
| CCC1c2c(c3cc(Cl)ccc3n2CC(C)(O)c2ccc(F)cc2)CCN1C (stereo not shown) [Compound 79] | 92% | 62% | 89% | 20% |  |
| Cc1ccc(CCn2c3c(c4cc(Cl)ccc42)CCN(C)C3C)cn1 (stereo not shown) [Compound 80] | 82% | 56% | 100% | 18% |  |
| CC1c2c(c3cc(Cl)ccc3n2CCc2ccc(F)cc2)CCN1C (stereo not shown) [Compound 81] | 92% | 93% | 102% | 67% |  |
| C/C(=C\n1c2c(c3cc(Cl)ccc31)CCN(C)C2)c1ccc(F)cc1 [Compound 90, (E)-6-chloro-9-(2-(4-fluorophenyl)prop-1-enyl)-2-methyl-2,3,4,9-tetrahydro-1H-pyrido[3,4-b]indole] | 88% | 97% | 97% | 64% | inhibition at 1 µM ([1]; compound concentration 1 μM, read-out: Percentage inhibition of ligand binding to Adrenergic α2A receptor): 88%; inhibition at 0.003 µM ([2]; compound concentration 3 nM, read-out: Percentage inhibition of ligand binding to 5-HT2A receptor): 1%; inhibition at 0.01 µM ([2]; compound concentration 10 nM, read-out: Percentage inhibition of ligand binding to 5-HT2A receptor): 9%; inhibition at 0.03 µM ([2]; compound concentration 0.03 μM, read-out: Percentage inhibition of ligand binding to 5-HT2A receptor): 31%; inhibition at 0.1 µM ([2]; compound concentration 0.1 μM, read-out: Percentage inhibition of ligand binding to 5-HT2A receptor): 64%; inhibition at 0.3 µM ([2]; compound concentration 0.3 μM, read-out: Percentage inhibition of ligand binding to 5-HT2A receptor): 87%; inhibition at 1 µM ([2]; compound concentration 1 μM, read-out: Percentage inhibition of ligand binding to 5-HT2A receptor): 97%; inhibition at 1 µM ([3]; compound concentration 1 μM, read-out: Percentage inhibition of ligand binding to Adrenergic α2B receptor): 97%; inhibition at 1 µM ([4]; compound concentration 1 μM, read-out: Percentage inhibition of ligand binding to H2 receptor): 64% |
